Measurements: ChEMBL document CHEMBL6087456 (J Med Chem, 2025)
Values after ≈ are worked out from the molar mass of the structure shown.

Key:
[1] = molecular target: T1, Dihydroorotate dehydrogenase (quinone), mitochondrial (Plasmodium falciparum (isolate 3D7), UniProt Q08210); assay: Inhibition of N-terminal His6-tagged recombinant Plasmodium falciparum DHODH (158 to 569 residues) N-terminally truncated soluble domain extracted from Escherichia coli phage resistant BL21-DE3 using CoQD/DHA/DCIP as substrates
T1 sequence (Q08210 whole entry): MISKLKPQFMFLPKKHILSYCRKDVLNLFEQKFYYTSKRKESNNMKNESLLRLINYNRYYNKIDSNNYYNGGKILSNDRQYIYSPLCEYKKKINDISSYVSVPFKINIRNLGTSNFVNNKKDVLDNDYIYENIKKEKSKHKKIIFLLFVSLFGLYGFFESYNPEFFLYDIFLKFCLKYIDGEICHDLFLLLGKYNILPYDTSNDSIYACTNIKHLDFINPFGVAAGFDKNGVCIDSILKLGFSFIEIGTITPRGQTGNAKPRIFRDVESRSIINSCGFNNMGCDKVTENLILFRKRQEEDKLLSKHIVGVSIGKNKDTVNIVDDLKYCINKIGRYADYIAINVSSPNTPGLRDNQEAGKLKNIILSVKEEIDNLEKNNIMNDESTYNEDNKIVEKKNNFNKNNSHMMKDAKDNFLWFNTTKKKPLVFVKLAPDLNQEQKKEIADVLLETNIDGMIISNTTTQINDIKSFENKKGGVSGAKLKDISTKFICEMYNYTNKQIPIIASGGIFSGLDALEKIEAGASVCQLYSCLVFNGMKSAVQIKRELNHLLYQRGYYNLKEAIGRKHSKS

[2] = molecular target: Dihydroorotate dehydrogenase (quinone), mitochondrial (Homo sapiens, UniProt Q02127); assay: Inhibition of C-terminal His6-tagged recombinant human DHODH (29 to 395 residues) N-terminally truncated soluble domain extracted from Escherichia coli phage resistant BL21-DE3 using CoQD/DHA/DCIP as substrates
[3] = Kinetic solubility of compound at pH 6.5 measured after 30 mins by nephelometry; format: physicochemical; conditions: buffer; for solubility kinetic at 0.5 h: pH 6.5, read-out: Kinetic_solubility; for Kinetic_solubility: pH 6.5, 0.5 h
Plasmodium falciparum = assay: Antiparasitic activity against asexual blood stage Plasmodium falciparum 3D7 incubated for 72 hrs by SYBR Green assay; format: functional, organism-based; conditions: 3D7, 72 h
[4] = Metabolic stability in human liver microsomes assessed as intrinsic clearance at 0.5 uM incubated for 60 mins in presence of NADPH by tandem quadrupole-Time of Flight MS; format: ADME, Microsome; conditions: 1 h

Dihydroorotate dehydrogenase (quinone), mitochondrial (Homo sapiens, UniProt Q02127), sequence (Q02127 whole entry, the tested form may be a part): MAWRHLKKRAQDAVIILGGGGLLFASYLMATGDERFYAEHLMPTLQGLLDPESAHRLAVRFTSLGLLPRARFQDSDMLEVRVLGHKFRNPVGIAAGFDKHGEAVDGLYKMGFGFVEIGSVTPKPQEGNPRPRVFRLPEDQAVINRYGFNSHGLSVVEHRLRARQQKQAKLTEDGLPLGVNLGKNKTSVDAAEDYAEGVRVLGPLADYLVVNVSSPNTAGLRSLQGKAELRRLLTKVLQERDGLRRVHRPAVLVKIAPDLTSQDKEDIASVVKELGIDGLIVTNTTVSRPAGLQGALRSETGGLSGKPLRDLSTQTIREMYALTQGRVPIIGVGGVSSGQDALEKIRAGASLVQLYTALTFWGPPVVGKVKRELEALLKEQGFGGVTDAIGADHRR

| SMILES | IC50 [1] [nM] | IC50 [2] [nM] | solubility kinetic at 0.5 h [3] [µM] | EC50 (Plasmodium falciparum) [nM] | intrinsic clearance (CLint) [4] [µL/min/mg] | Kinetic_solubility [3] [µM] |
| --- | --- | --- | --- | --- | --- | --- |
| CC[C@@](O)(c1ccc(C(F)(F)F)c(C#N)c1)c1c2ccn(C3CC3)c(=O)c2nn1C | 19 | 960 | 20 (≈ 8.33 µg/mL) | 1 | < 3 | – |
| CCn1cc(C2CC2)c2c(CN3CCC(F)(F)C(C)(C)C3)n(C)nc2c1=O | 21 | > 30000 | 12.5 (≈ 4.73 µg/mL) | 15 | 160 | – |
| Cn1nc2c(=O)n(C3CC3)ccc2c1Cc1ccc(C(F)(F)F)nc1 | 910 | > 100000 | – | 590 | – | – |
| CC[C@@](O)(c1ccc(C(F)(F)F)c(Cl)c1)c1c2cnn(C3CC3)c(=O)c2nn1C | 6 | – | 6.25 (≈ 2.67 µg/mL) | – | < 3 | – |
| CC[C@@](N)(c1ccc(C(F)(F)F)c(Cl)c1)c1c2ncn(C3CC3)c(=O)c2nn1C | 9 | – | – | 1 | < 3 | > 100 |
| Cn1nc2c(=O)n(C3CC3)cc(C3CC3)c2c1Cc1ccc(C(F)(F)F)nc1 | 43 | 17000 | 65 (≈ 25.2 µg/mL) | 32 | < 7 | – |
| Cn1nc2c(=O)n(C3CC3)ncc2c1[C@](O)(c1ccc(C(F)(F)F)c(Cl)c1)C(F)(F)F | 9 | 22000 | 5 (≈ 2.33 µg/mL) | – | < 3 | – |
| CCn1cc(C2CC2)c2c(Cc3ccc(C(F)(F)F)c(C#N)c3)n(C)nc2c1=O | 15 | 11000 | 15 (≈ 6.01 µg/mL) | 4 | 64 | – |
| CC[C@@](O)(c1ccc(F)c(Cl)c1)c1c2ccn(C3CC3)c(=O)c2nn1C | 7 | 700 | 40 (≈ 15 µg/mL) | 1 | 8.4 | – |
| CCn1cc(C2CC2)c2c(Cc3ccc(C(F)(F)F)c(F)c3)n(C)nc2c1=O | 14 | 14000 | 16 (≈ 6.29 µg/mL) | 8 | 52 | – |
| CCn1cc(Cl)c2c(Cc3ccc(N4CCN(C)CC4)nc3)n(C)nc2c1=O | 1500 | – | – | 2700 | – | – |
| CC[C@](N)(c1cnc(C(F)(F)F)c(Cl)c1)c1c2ccn(C3CC3)c(=O)c2nn1C | 17000 | – | – | 2300 | – | – |
| Cn1nc2c(=O)n(C3CC3)cnc2c1[C@](O)(c1ccc(C(F)(F)F)c(Cl)c1)C(F)(F)F | 5 | 6500 | 20 (≈ 9.34 µg/mL) | 77000 | < 3 | – |
| Cn1nc2c(=O)n(C)ccc2c1Cc1ccc(C(F)(F)F)nc1 | 4500 | – | – | 6000 | – | – |
| CCn1cc(C2CC2)c2c([C@H](N)c3ccc(C(F)(F)F)nc3)n(C)nc2c1=O | 180 | > 100000 | – | 27 | 3.8 | > 320 |
| CC(C)n1ccc2c(Cc3ccc(C(F)(F)F)nc3)n(C)nc2c1=O | 14000 | > 100000 | – | 6600 | – | – |
| CCn1cc(C2CC2)c2c(CN3CCC4(CCC4)CC3)n(C)nc2c1=O | 8 | 22000 | 80 (≈ 28.4 µg/mL) | 15 | 130 | – |
| Cn1nc2c(=O)n(C3CC3)ncc2c1[C@](O)(c1ccc(C(F)(F)F)c(C#N)c1)C(F)(F)F | 19 | > 30000 | 20 (≈ 9.15 µg/mL) | 1 | < 3 | – |
| Cn1nc2c(=O)n(C3CC3)cnc2c1[C@@](O)(c1cnc(C(F)(F)F)c(Cl)c1)C(F)(F)F | 4500 | – | – | 550 | – | – |
| Cn1nc2c(=O)n(C3CC3)ccc2c1[C@](N)(c1cnc(C(F)(F)F)c(Cl)c1)C(F)(F)F | – | > 30000 | 40 (≈ 18.6 µg/mL) | 3 | < 3 | – |
| Cn1nc2c(=O)n(CCC3CC3)ccc2c1Cc1ccc(C(F)(F)F)nc1 | > 100000 | – | – | 14000 | – | – |
| CCn1cc(C)c2c([C@@H](O)c3ccc(C(F)(F)F)nc3)n(C)nc2c1=O | 280 | – | – | 220 | – | – |

| SMILES | IC50 [1] [nM] | IC50 [2] [nM] | solubility kinetic at 0.5 h [3] [µM] | EC50 (Plasmodium falciparum) [nM] | intrinsic clearance (CLint) [4] [µL/min/mg] | Kinetic_solubility [3] [µM] |
| --- | --- | --- | --- | --- | --- | --- |
| CCn1cc(Cl)c2c(Cc3ccc(N4CCCCC4)nc3)n(C)nc2c1=O | 17 | 5400 | 40 (≈ 15.4 µg/mL) | 62 | 160 | – |
| Cn1nc2c(=O)n(C3CC3)ccc2c1[C@](O)(c1ccc(C(F)(F)F)c(C#N)c1)C1CC1 | 18 | > 30000 | – | 1 | < 3 | < 5 |
| CCn1cc(C)c2c(Cc3ccc(C(F)(F)F)nc3)n(C)nc2c1=O | 70 | > 100000 | – | 44 | < 7 | > 280 |
| CCn1ccc2c(Cc3ccc(C(F)(F)F)nc3)n(C)nc2c1=O | 1500 | > 30000 | – | 580 | < 7 | > 300 |
| CC[C@](O)(c1cnc(C(F)(F)F)c(Cl)c1)c1c2ccn(C3CC3)c(=O)c2nn1C | 14000 | – | – | 440 | – | – |
| CCn1cc(Cl)c2c(Cc3ccc(N4CCOCC4)nc3)n(C)nc2c1=O | 190 | > 100000 | 65 (≈ 25.2 µg/mL) | 370 | 15 | – |
| CCn1ccc2c([C@@](O)(CC)c3cnc(C(F)(F)F)c(Cl)c3)n(C)nc2c1=O | 27 | – | 40 (≈ 16.6 µg/mL) | – | 9.3 | – |
| CC[C@](N)(c1cnc(C(F)(F)F)c(Cl)c1)c1c2ncn(C3CC3)c(=O)c2nn1C | 4200 | – | – | 980 | – | – |
| CCn1cc(C2CC2)c2c(CN3CCC(F)(F)CC3(C)C)n(C)nc2c1=O | – | 57000 | 40 (≈ 15.1 µg/mL) | 35 | 74 | – |
| Cn1nc2c(=O)n(C3CC3)ccc2c1Cc1ccc(C(F)(F)F)c(C#N)c1 | 140 | > 100000 | 67 (≈ 24.9 µg/mL) | 81 | < 7 | – |
| CCn1cc(C)c2c([C@@H](N)c3ccc(C(F)(F)F)nc3)n(C)nc2c1=O | 1100 | – | – | 2600 | – | – |
| CCn1cc(C2CC2)c2c(Cc3cnc(C(F)(F)F)c(Cl)c3)n(C)nc2c1=O | – | 60000 | 50 (≈ 20.5 µg/mL) | 35 | 28 | – |
| Cn1nc2c(=O)n(C3CC3)cnc2c1[C@](O)(c1ccc(C(F)(F)F)c(C#N)c1)C(F)(F)F | 14 | 18000 | 40 (≈ 18.3 µg/mL) | – | < 3 | – |
| CCn1cc(C2CC2)c2c(Cc3cnc(C(F)(F)F)c(OC)c3)n(C)nc2c1=O | 57 | > 100000 | 60 (≈ 24.4 µg/mL) | 17 | 25 | – |
| CCn1cc(C2CC2)c2c(CN3CCC(F)(F)CC3)n(C)nc2c1=O | – | > 100000 | 50 (≈ 17.5 µg/mL) | 300 | 20 | – |
| Cn1nc2c(=O)n(C3CC3)ccc2c1[C@](O)(c1ccc(F)c(Cl)c1)C(F)(F)F | – | 8500 | 20 (≈ 8.32 µg/mL) | 1 | < 3 | – |
| Cc1cn(C2CC2)c(=O)c2nn(C)c(Cc3ccc(C(F)(F)F)nc3)c12 | 89 | 52000 | 130 (≈ 47.1 µg/mL) | 45 | < 7 | – |
| Cn1nc2c(=O)n(C3CC3)ncc2c1[C@](O)(c1ccc(C(F)(F)F)c(Cl)c1)C1CC1 | – | > 30000 | – | 2 | < 3 | < 5 |
| CCn1cc(C2CC2)c2c([C@H](O)c3cnc(C(F)(F)F)c(Cl)c3)n(C)nc2c1=O | – | > 100000 | 80 (≈ 34.1 µg/mL) | 5 | 6 | – |
| CCn1ccc2c([C@](O)(c3ccc(C(F)(F)F)nc3)C3CC3)n(C)nc2c1=O | – | > 100000 | 80 (≈ 31.4 µg/mL) | 7 | < 3 | – |
| Cn1nc2c(=O)n(C3CC3)ccc2c1[C@](O)(c1ccc(C(F)(F)F)nc1)C(F)(F)F | – | > 30000 | 50 (≈ 21.6 µg/mL) | 2 | < 3 | – |
